Laboratory results published in patent US9061030B2, “sGC stimulators” (IRONWOOD PHARMACEUTICALS, INC., priority 2010, dated 2015).

Tested on: Thoracic aortic rings
Test: Thoracic aortic rings assay
Design: species or system rat
Settings: for inhibition at 1 µM: 1 μM compound, read-out: Percent Relaxation at 1 μM; for inhibition at 1 µM / inhibition at 3 µM / inhibition at 10 µM: rat thoracic aortic rings contracted with 100 ng/mL phenylephrine; for inhibition at 3 µM: 3 μM compound, read-out: Percent Relaxation at 3 μM; for inhibition at 10 µM: 10 μM compound, read-out: Percent Relaxation at 10 μM; for EC50: relaxation of rat thoracic aortic rings contracted with 100 ng/mL phenylephrine, read-out: Aortic Ring EC50
Experimental: Thoracic aortic rings were dissected from anesthetized (isoflurane) male Sprague-Dawley rats weighing 275-299 g. Tissues were immediately transferred to ice-cold Krebs-Henseleit solution, which had been aerated with 95% O2 and 5% CO2 for 30 minutes. Following removal of connective tissue, aortic sections were cut into 4 rings (˜2 mm each) and suspended on 2 L-shaped hooks, with one hook fixed at the bottom of the tissue bath (Schuler Organ Bath, Harvard Apparatus) and the other connected to a force transducer (F30 Force Transducer, Harvard Apparatus). Baths contained Krebs Henseleit solution (10 mL) heated to 37° C. and aerated with 95% O2 and 5% CO2. Rings were brought to an initial tension of 0.3-0.5 g and gradually raised to a resting tension of 1.0 g over 60 minutes. Rings were rinsed with Krebs Henseleit solution (heated to 37° C. and aerated with 95% 02 and 5% CO2) at 15 minute intervals until a stable baseline was obtained. Rings were considered to be stable after a resting tension of 1.0 g was maintained (for approximately 10 minutes) without need for adjustment. Rings were then contracted with 100 ng/mL phenylephrine by adding 100 μL of a 10 μg/mL phenylephrine stock solution. Tissues achieving a stable contraction were then treated in a cumulative, dose dependent manner with test compounds prepared in dimethylsulfoxide (DMSO). In some cases, tissues were rinsed three times over a 5 minute period with Krebs-Heinseleit's solution (heated to 37° C. and aerated with 95% 02 and 5% CO2), allowed to stabilize at baseline, and then used for characterization of other test articles or DMSO effects. All data were collected using the HSE-ACAD software provided by Harvard Apparatus. Percent relaxation effects were calculated in Microsoft Excel using the recorded tension value of 100 ng/mL phenylephrine treatment as 0% inhibition and, after washing the tissue with buffer, the original resting tension of tissue is used as 100% inhibition. EC50 values were calculated from concentration-response curves generated with GraphPad Prism Software.
The biological data for some of the compounds of Formula IA and Formula IB, in comparison with the prior art compound, BAY 41-2272, as the reference compound, determined by the thoracic aorta ring assay are presented in Table 6 below.

Row | SMILES | inhibition at 1 µM | inhibition at 3 µM | inhibition at 10 µM | EC50
1 | Fc1ccccc1Cn1nc(-c2ccccn2)nc1-c1ccccn1 [Compound I-1] | 20 to 40% | 60 to 80% | 100 to 120% | 1 to 2 µM
2 | Fc1ccccc1Cn1nc(-c2ncccn2)nc1-c1cscn1 [Compound I-3] | 40 to 60% | 80 to 100% | 100 to 120% | 1 to 2 µM
3 | Fc1ccccc1Cn1nc(-c2ccccn2)nc1-c1cscn1 [Compound I-4] | 60 to 80% | 100 to 120% | – | < 1 µM
4 | Fc1ccccc1Cn1nc(-c2ccccn2)nc1-c1ncco1 [Compound I-6] | 20 to 40% | 60 to 80% | 100 to 120% | 1 to 2 µM
5 | Fc1ccccc1Cn1nc(-c2ccccn2)nc1-c1cocn1 [Compound I-12, 4-(1-(2-fluorobenzyl)-3-(pyridin-2-yl)-1H-1,2,4-triazol-5-yl)oxazole] | 40 to 60% | 80 to 100% | 100 to 120% | < 1 µM
6 | Fc1ccccc1Cn1nc(-c2ccccn2)nc1-c1nccs1 [Compound I-25] | 40 to 60% | 80 to 100% | 100 to 120% | < 1 µM
7 | Fc1ccccc1Cn1nc(-c2ncccn2)nc1-c1nccs1 [Compound I-30] | 20 to 40% | 60 to 80% | 100 to 120% | 2 to 3 µM
8 | Fc1ccc(-c2nc(-c3nccs3)n(Cc3ccccc3F)n2)nc1 [Compound I-38] | 40 to 60% | 80 to 100% | 100 to 120% | 1 to 2 µM
9 | Fc1ccccc1Cn1nc(-c2cscn2)nc1-c1nccs1 [Compound I-40] | 20 to 40% | 60 to 80% | 100 to 120% | 1 to 2 µM
10 | Fc1ccccc1Cn1nc(-c2nccs2)nc1-c1cscn1 [Compound I-41] | 80 to 100% | 100 to 120% | 100 to 120% | < 1 µM
11 | Nc1ccnc(-c2nc(-c3nccs3)n(Cc3ccccc3F)n2)c1 [Compound I-44] | 80 to 100% | 100 to 120% | 100 to 120% | < 1 µM
12 | Fc1ccccc1Cn1nc(-c2ncccn2)nc1-c1cocn1 [Compound I-46] | 20 to 40% | 60 to 80% | 80 to 100% | 2 to 3 µM
13 | Nc1ccnc(-c2nc(-c3nccs3)n(Cc3ccccc3F)n2)n1 [Compound I-48, 2-(1-(2-fluorobenzyl)-5-(thiazol-2-yl)-1H-1,2,4-triazol-3-yl)pyrimidin-4-amine] | 40 to 60% | 80 to 100% | 100 to 120% | 1 to 2 µM
14 | Fc1ccccc1Cn1nc(-c2ccccn2)nc1-n1cncn1 [Compound I-50, 2′-(2-fluorobenzyl)-5′-(pyridin-2-yl)-2′H-1,3′-bi(1′,2′,4-triazole)] | 10 to 20% | 20 to 40% | 60 to 80% | –
15 | Nc1ccnc(-c2nc(-c3cscn3)n(Cc3ccccc3F)n2)c1 [Compound I-53, 2-(1-(2-fluorobenzyl)-5-(thiazol-4-yl)-1H-1,2,4-triazol-3-yl)pyridin-4-amine] | 20 to 40% | 80 to 100% | 100 to 120% | 1 to 2 µM
16 | COC(=O)N(C)c1c(N)nc(-c2nc(-c3nccs3)n(Cc3ccccc3F)n2)nc1N [Compound I-61, methyl 4,6-diamino-2-(1-(2-fluorobenzyl)-5-(thiazol-2-yl)-1H-1,2,4-triazol-3-yl)pyrimidin-5-yl(methyl)carbamate] | 60 to 80% | 80 to 100% | – | < 1 µM
